{"source": "paper PMC7413516", "about": "“Antidepressant-like activity and safety profile evaluation of 1H-imidazo[2,1-f]purine-2,4(3H,8H)-dione derivatives as 5-HT1A receptor partial agonists” (PLoS ONE, 2020)", "key": {"normotensive rats": {"test_system": "normotensive rats", "test": "Blood pressure measurement in normotensive anesthetized rats", "type": "in vivo, Wistar rats", "settings": "for DBP Mean / SBP Mean / DBP (individual animals) / SBP (individual animals): 10 mg/kg i.p.", "description": "Male Wistar normotensive rats were anesthetized with thiopental (50–75 mg/kg, i.p.). The right carotid artery was cannulated with a polyethylene tube filled with heparin in saline to facilitate pressure measurement using the Datamax apparatus (Columbus Instruments, Columbus, Ohio, USA). The studied compounds were administered after a 15-min stabilization period."}, "[1]": {"parameters": "method as in PMID 27353547", "settings": "ref [8]; cited from earlier work"}, "[2]": {"target": "T1, human serotonin 5-HT1A receptor (Homo sapiens, UniProt P08908)", "T1 sequence (P08908 1-422)": "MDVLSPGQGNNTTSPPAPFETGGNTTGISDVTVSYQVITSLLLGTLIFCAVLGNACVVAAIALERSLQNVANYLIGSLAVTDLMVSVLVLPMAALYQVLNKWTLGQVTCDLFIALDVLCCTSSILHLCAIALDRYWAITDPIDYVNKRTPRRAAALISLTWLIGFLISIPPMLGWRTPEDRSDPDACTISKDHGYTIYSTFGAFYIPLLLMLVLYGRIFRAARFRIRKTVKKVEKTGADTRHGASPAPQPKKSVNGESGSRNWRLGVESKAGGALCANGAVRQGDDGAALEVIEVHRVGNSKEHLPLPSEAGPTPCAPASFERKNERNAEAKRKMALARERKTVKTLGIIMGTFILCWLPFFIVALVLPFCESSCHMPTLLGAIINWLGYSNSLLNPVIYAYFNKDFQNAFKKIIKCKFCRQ", "test": "ERK1/2 phosphorylation (SureFire Alpha LISA, CHO-K1 5HT1AR cells)"}, "[3]": {"target": "T2, muscarinic M3 receptor (M3R) (Cavia porcellus, UniProt H0W1Z3)", "T2 construct": "from tissue; host or cells: isolated guinea pig ileum", "T2 sequence (H0W1Z3 1-590)": "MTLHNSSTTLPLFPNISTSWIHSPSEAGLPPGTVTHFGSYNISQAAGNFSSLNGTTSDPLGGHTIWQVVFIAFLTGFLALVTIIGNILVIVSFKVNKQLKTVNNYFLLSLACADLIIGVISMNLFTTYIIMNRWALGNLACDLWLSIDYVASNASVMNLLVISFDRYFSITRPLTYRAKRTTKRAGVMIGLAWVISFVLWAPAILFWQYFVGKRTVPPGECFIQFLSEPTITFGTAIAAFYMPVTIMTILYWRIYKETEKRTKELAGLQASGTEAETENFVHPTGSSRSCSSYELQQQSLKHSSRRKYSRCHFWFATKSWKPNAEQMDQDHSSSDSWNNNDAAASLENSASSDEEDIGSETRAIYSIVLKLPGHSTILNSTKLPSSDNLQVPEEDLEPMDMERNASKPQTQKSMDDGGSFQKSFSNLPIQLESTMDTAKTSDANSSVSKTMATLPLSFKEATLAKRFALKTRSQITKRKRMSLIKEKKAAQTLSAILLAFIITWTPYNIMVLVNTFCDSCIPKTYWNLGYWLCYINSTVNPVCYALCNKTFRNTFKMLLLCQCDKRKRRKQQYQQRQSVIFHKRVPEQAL", "test": "Smooth muscle relaxant assay: carbachol-induced contraction of isolated guinea pig ileum", "settings": "isolated guinea pig small intestine, carbachol 100 μM", "description": "The experiment was carried out according to the method described previously. Male guinea pigs were sacrificed by cervical dislocation. The ileum was rapidly removed, rinsed, and cut into segments of 1.5–2.0 cm length. The tissues were mounted on a jacketed 20 mL organ bath (Tissue Organ Bath System; 750 TOBS, DMT, Denmark) filled with Krebs’s solution (NaCl 120 mM, KCl 5.6 mM, MgCl2 2.2 mM, CaCl2 2.4 mM, NaHCO3 19 mM, glucose 10 mM). The bath was aerated with 95 % O2/5 % CO2 and heated at 37°C. During the 60-min incubation period, the organ was rinsed 4 times with fresh Krebs’s buffer, and the tissues were also pre-stimulated by 60 mM KCl solution. The submaximal contraction induced by histamine (Sigma Aldrich) (2 μM) and carbachol (Sigma Aldrich) (100 μM) was evaluated in the presence and absence of the tested compounds. Amplitudes of contraction values were measured in 4 independent experiments."}, "[4]": {"settings": "time 0 min (baseline), 10 mg/kg"}}, "note": "Where “and” joins values, the source holds several entries; their conditions need not be identical. Identical values can stand only once."}
{"smiles": "Cn1c(=O)c2c(nc3n(CCCCN4CCN(c5ccccc5F)CC4)ccn23)n(C)c1=O", "note": "[AZ-853, 8-(4-(4-(2-fluorophenyl)piperazin-1-yl)butyl)-1,3-dimethyl-1H-imidazo[2,1-f]purine-2,4(3H,8H)-dione]", "values": [{"measurement": "effect on systolic blood pressure", "setting": "normotensive rats; 10 mg/kg", "result": "did not significantly affect the systolic blood pressure"}, {"measurement": "reduction of diastolic blood pressure in relation to the baseline value", "setting": "normotensive rats; 10 mg/kg", "result": "13–15%"}, {"measurement": "DBP Mean", "setting": "normotensive rats; 5 min", "result": 88.3, "unit": "mmHg"}, {"measurement": "SBP Mean", "setting": "normotensive rats; 5 min", "result": 131.2, "unit": "mmHg"}, {"measurement": "DBP (individual animals)", "setting": "normotensive rats; 5 min, 10 mg/kg", "result": "85 mmHg and 88 mmHg and 83 mmHg and 95 mmHg and 91 mmHg"}, {"measurement": "SBP (individual animals)", "setting": "normotensive rats; 5 min, 10 mg/kg", "result": "143 mmHg and 116 mmHg and 120 mmHg and 123 mmHg and 163 mmHg and 122 mmHg"}, {"measurement": "DBP Mean", "setting": "normotensive rats; 10 min", "result": 84.8, "unit": "mmHg"}, {"measurement": "SBP Mean", "setting": "normotensive rats; 10 min", "result": 130.0, "unit": "mmHg"}, {"measurement": "DBP (individual animals)", "setting": "normotensive rats; 10 min, 10 mg/kg", "result": "82 mmHg and 81 mmHg and 85 mmHg and 91 mmHg and 84 mmHg and 86 mmHg"}, {"measurement": "SBP (individual animals)", "setting": "normotensive rats; 10 min, 10 mg/kg", "result": "144 mmHg and 112 mmHg and 127 mmHg and 119 mmHg and 162 mmHg and 116 mmHg"}, {"measurement": "DBP Mean", "setting": "normotensive rats; 15 min", "result": 83.2, "unit": "mmHg"}, {"measurement": "SBP Mean", "setting": "normotensive rats; 15 min", "result": 128.5, "unit": "mmHg"}, {"measurement": "DBP (individual animals)", "setting": "normotensive rats; 15 min, 10 mg/kg", "result": "80 mmHg and 81 mmHg and 84 mmHg and 88 mmHg and 82 mmHg"}, {"measurement": "SBP (individual animals)", "setting": "normotensive rats; 15 min, 10 mg/kg", "result": "140 mmHg and 113 mmHg and 130 mmHg and 116 mmHg and 160 mmHg and 112 mmHg"}, {"measurement": "DBP Mean", "setting": "normotensive rats; 20 min", "result": 83.0, "unit": "mmHg"}, {"measurement": "SBP Mean", "setting": "normotensive rats; 20 min", "result": 125.5, "unit": "mmHg"}, {"measurement": "DBP (individual animals)", "setting": "normotensive rats; 20 min, 10 mg/kg", "result": "75 mmHg and 76 mmHg and 85 mmHg and 88 mmHg and 86 mmHg"}, {"measurement": "SBP (individual animals)", "setting": "normotensive rats; 20 min, 10 mg/kg", "result": "132 mmHg and 110 mmHg and 128 mmHg and 113 mmHg and 161 mmHg"}, {"measurement": "DBP Mean", "setting": "normotensive rats; 30 min", "result": 83.2, "unit": "mmHg"}, {"measurement": "SBP Mean", "setting": "normotensive rats; 30 min", "result": 122.8, "unit": "mmHg"}, {"measurement": "DBP (individual animals)", "setting": "normotensive rats; 30 min, 10 mg/kg", "result": "80 mmHg and 76 mmHg and 84 mmHg and 87 mmHg and 86 mmHg and 85 mmHg"}, {"measurement": "SBP (individual animals)", "setting": "normotensive rats; 30 min, 10 mg/kg", "result": "136 mmHg and 109 mmHg and 126 mmHg and 110 mmHg and 160 mmHg and 112 mmHg"}, {"measurement": "DBP Mean", "setting": "normotensive rats; 40 min", "result": 82.5, "unit": "mmHg"}, {"measurement": "SBP Mean", "setting": "normotensive rats; 40 min", "result": 126.2, "unit": "mmHg"}, {"measurement": "DBP (individual animals)", "setting": "normotensive rats; 40 min, 10 mg/kg", "result": "80 mmHg and 76 mmHg and 86 mmHg and 88 mmHg and 83 mmHg"}, {"measurement": "SBP (individual animals)", "setting": "normotensive rats; 40 min, 10 mg/kg", "result": "138 mmHg and 110 mmHg and 125 mmHg and 111 mmHg and 159 mmHg"}, {"measurement": "DBP Mean", "setting": "normotensive rats; 50 min", "result": 83.2, "unit": "mmHg"}, {"measurement": "SBP Mean", "setting": "normotensive rats; 50 min", "result": 125.7, "unit": "mmHg"}, {"measurement": "DBP (individual animals)", "setting": "normotensive rats; 50 min, 10 mg/kg", "result": "83 mmHg and 82 mmHg and 84 mmHg and 86 mmHg and 97 mmHg and 85 mmHg"}, {"measurement": "SBP (individual animals)", "setting": "normotensive rats; 50 min, 10 mg/kg", "result": "139 mmHg and 113 mmHg and 119 mmHg and 167 mmHg and 111 mmHg"}, {"measurement": "DBP Mean", "setting": "normotensive rats; 60 min", "result": 86.2, "unit": "mmHg"}, {"measurement": "SBP Mean", "setting": "normotensive rats; 60 min", "result": 127.0, "unit": "mmHg"}, {"measurement": "DBP (individual animals)", "setting": "normotensive rats; 60 min, 10 mg/kg", "result": "84 mmHg and 80 mmHg and 83 mmHg and 86 mmHg and 82 mmHg"}, {"measurement": "SBP (individual animals)", "setting": "normotensive rats; 60 min, 10 mg/kg", "result": "136 mmHg and 111 mmHg and 116 mmHg and 110 mmHg and 157 mmHg and 107 mmHg"}, {"measurement": "DBP Mean", "setting": "normotensive rats; 70 min", "result": 84.7, "unit": "mmHg"}, {"measurement": "SBP Mean", "setting": "normotensive rats; 70 min", "result": 125.3, "unit": "mmHg"}, {"measurement": "DBP (individual animals)", "setting": "normotensive rats; 70 min, 10 mg/kg", "result": "84 mmHg and 85 mmHg and 89 mmHg and 82 mmHg"}, {"measurement": "SBP (individual animals)", "setting": "normotensive rats; 70 min, 10 mg/kg", "result": "138 mmHg and 116 mmHg and 120 mmHg and 111 mmHg and 160 mmHg and 107 mmHg"}, {"measurement": "DBP Mean", "setting": "normotensive rats; 80 min", "result": 83.2, "unit": "mmHg"}, {"measurement": "SBP Mean", "setting": "normotensive rats; 80 min", "result": 123.2, "unit": "mmHg"}, {"measurement": "DBP (individual animals)", "setting": "normotensive rats; 80 min, 10 mg/kg", "result": "85 mmHg and 80 mmHg and 82 mmHg and 89 mmHg and 81 mmHg"}, {"measurement": "SBP (individual animals)", "setting": "normotensive rats; 80 min, 10 mg/kg", "result": "137 mmHg and 112 mmHg and 115 mmHg and 108 mmHg and 160 mmHg and 107 mmHg"}, {"measurement": "DBP Mean", "setting": "normotensive rats; time 0 min (baseline)", "result": 97.2, "unit": "mmHg"}, {"measurement": "SBP Mean", "setting": "normotensive rats; time 0 min (baseline)", "result": 131.0, "unit": "mmHg"}, {"measurement": "DBP (individual animals)", "setting": "normotensive rats; [4]", "result": "97 mmHg and 98 mmHg and 91 mmHg and 84 mmHg and 100 mmHg and 113 mmHg"}, {"measurement": "SBP (individual animals)", "setting": "normotensive rats; [4]", "result": "129 mmHg and 140 mmHg and 120 mmHg and 119 mmHg and 122 mmHg and 156 mmHg"}, {"measurement": "estimated log p", "setting": "[1]", "result": 5.34}, {"measurement": "EC50", "setting": "[2]", "result": 6.61, "unit": "nM"}, {"measurement": "Emax", "setting": "[2]; CHO-K1, read-out: Emax (%) ± SEM, agonist mode", "result": "60 ± 2", "unit": "%"}, {"measurement": "decreased efficacy as compared to 5-HT", "setting": "[2]; p-ERK1/2", "result": 1.6, "unit": "fold"}, {"measurement": "increased potency as compared to 5-HT", "setting": "[2]; p-ERK1/2", "result": 1.5, "unit": "fold"}, {"measurement": "inhibition at 1 µM", "setting": "[3]", "result": 2.5, "unit": "%"}]}
